How the values were obtained:
[1] = reference: Carcinogenesis (2002), 23(5), 795-802; cited from earlier work
[2] = system: carrageenin-induced inflammatory nociception in the hind paw; experiment: Inflammatory nociception induced by carrageenin (von Frey filament); format: in vivo; conditions: mice, carrageenin 300 μg per paw intraplantar; alpha-humulene 50 mg/kg orally or paracetamol 600 mg/kg orally, 1 h before; evaluated after 3, 4 and 6 hours
Procedure: The evaluation methodology used in this test is described by Vaz et al. in J. Pharmacol. Exp. Ther. 278:304-312, 1996. Male mice (25-35 g) were systemically (orally) treated with alpha-humulene, 50 mg/kg, administered 1 hour before the experiment. Animals treated with 0.9% saline solution (0.1 ml/10 g) were used as the control. Another group of animals was treated with paracetamol (600 mg/kg, orally, administered 1 h before the treatment), that was used as positive control. For the induction of inflammatory pain, the animals received an intraplantar injection of 0.05 ml of carrageenin (300 μg per paw) at the plantar surface of the right hind paw. […] The nociception was evaluated with a Von Frey filament (0.4 g) after 3, 4 and 6 hours. […] The filament was applied to the right hind paw, complying with the criteria of (1) the application was perpendicular to the plantar surface, with enough pressure to cause the filament to bend, thus obtaining total pressure; (2) the animals were evaluated when the four paws were touching the screen; (3) the paw withdrawal response was considered when the animal removed the paw entirely from the support screen; (4) each animal was stimulated 10 consecutive times, each stimulation lasting 1 second; (5) each paw withdrawal event was considered as 10% of the response, with 10 withdrawal events corresponding to 100% response. […]

TNFα = experiment: Levels of pro-inflammatory cytokine TNFα in carrageenin-injected rat paw (Elisa); format: in vivo; conditions: 50 mg/kg orally 60 minutes before carrageenin 300 μg/paw, tissue after 180 minutes
Procedure: The test used below is described by Campos et. al. in the publication Br. J. Pharmacol. 135: 1107-1114, 2002, with minor modifications.
Male […]-180 g rats were orally given 50 mg/kg of trans-caryophyllene. Animals treated with 0.9% (0.1 ml/10 g) saline were used as control. Another group of animals was treated with 0.5 mg/kg dexamethasone, subcutaneously, 4 hours before the test, and used as positive control. After 60 minutes, the animals received intraplantar injections of 100 μl of carrageenin (300 μg/paw) and were sacrificed after 180 minutes. Control animals received saline. The subcutaneous tissue of the injected paws was removed and put in a phosphate buffer containing 0.5% tween 20, 0.1 mM benzametonium chloride, 10 mM EDTA, 2 μg/m aprotinin, 0.1 mM PMSF (phenyl methyl sulfonyl fluoride) and 0.5% BSA (bovine serum albumin). The tissues were homogenized and centrifuged at 3000 g, for 10 min, at −4° C. The supernatant was used in the test. The levels of TNFαwere measures with an Elisa kit, according to the manufacturer's instructions (R & D Systems®, USA). The tests were performed in duplicate, and repeated three times. The answers are expressed in pg/mg of tissue. […]

Compound | anti-inflammatory or chemo-therapic effects [1] | inflammatory nociception (paw withdrawal response to 0.4 g von Frey filament) [2] | production of pro-inflammatory cytokine TNFα induced by carrageenin in the paws of rats (TNFα)
C/C1=C\CC/C(C)=C/CC(C)(C)/C=C/C1 [alpha-humulene] | virtually inactive | reduced the inflammatory nociception | 
C=C1CC/C=C(\C)CC[C@@H]2[C@@H]1CC2(C)C [trans-caryophyllene] |  |  | markedly inhibited the production

— patent US20080280996A1, “Use of Carophyllenes in the Manufacture of Medicaments and Treatment of Bodily Conditions of Inflammation and Inflammatory Pain” (priority 2004, published 2008)
